The assay addresses T1, AR (AR-HiBiT LNCaP cells) (Homo sapiens, UniProt P10275, T878A).
T1 construct: host or cells: AR-HiBiT KI LNCaP
T1 sequence (P10275 1-920 T878A): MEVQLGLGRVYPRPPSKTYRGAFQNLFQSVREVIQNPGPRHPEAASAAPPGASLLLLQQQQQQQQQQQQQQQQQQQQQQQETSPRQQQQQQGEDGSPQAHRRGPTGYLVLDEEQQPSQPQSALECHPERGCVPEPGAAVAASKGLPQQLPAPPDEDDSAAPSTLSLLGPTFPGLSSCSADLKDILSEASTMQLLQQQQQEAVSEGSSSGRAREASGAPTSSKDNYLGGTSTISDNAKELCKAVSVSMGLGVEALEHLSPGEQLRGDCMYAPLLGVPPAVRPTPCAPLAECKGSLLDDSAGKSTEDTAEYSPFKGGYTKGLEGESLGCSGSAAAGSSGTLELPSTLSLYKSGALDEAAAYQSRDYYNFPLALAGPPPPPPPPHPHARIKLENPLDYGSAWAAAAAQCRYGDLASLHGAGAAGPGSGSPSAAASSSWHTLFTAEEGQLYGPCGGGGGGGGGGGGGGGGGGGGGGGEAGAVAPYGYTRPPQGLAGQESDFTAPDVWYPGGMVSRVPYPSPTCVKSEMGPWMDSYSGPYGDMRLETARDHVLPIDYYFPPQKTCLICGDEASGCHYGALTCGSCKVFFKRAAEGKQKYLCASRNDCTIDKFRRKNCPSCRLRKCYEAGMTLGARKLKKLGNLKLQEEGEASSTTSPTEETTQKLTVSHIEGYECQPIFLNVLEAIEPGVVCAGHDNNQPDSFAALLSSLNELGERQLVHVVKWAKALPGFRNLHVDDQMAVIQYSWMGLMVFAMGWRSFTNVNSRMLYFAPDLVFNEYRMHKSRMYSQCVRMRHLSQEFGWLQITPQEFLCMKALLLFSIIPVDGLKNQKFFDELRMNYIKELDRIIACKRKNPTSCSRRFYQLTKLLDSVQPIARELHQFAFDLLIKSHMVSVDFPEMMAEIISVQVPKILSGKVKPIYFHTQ
As to the kind of experiment: AR HiBiT degradation assay. The format is cell-based. As to conditions: read-out: AR DC50. On the procedure: Cellular BRD4/AR HiBiT assay
The HiBiT tagged cells were seeded at 10,000 cells per well in a 384-well plate (Thermo Scientific, 164610) at 25 µL per well in DMEM media containing 10% FBS and incubated overnight. Compounds were dispensed using D300e Digital Dispenser (HP) and normalized to 0.1% DMSO. Cells were pre-treated with Epoxomicin or MLN4924 for 3 h before treatment […]
Nano -Glo HiBiT lytic detection assay was performed as described in the manufacturer protocol (Promega). 25 µL of premixed detection reagent was added to each well of the 384 well assay plate and incubated for 15 min on an orbital shaker (at 600 RPM), and luminescence was read using a PHERAstar FS plate reader (BMG Labtech). Corresponding background RLU values were subtracted from DMSO control values and the percentage of protein (%) of were then calculated against […]
DMSO-treated controls. […]
1:1000 WB), Tubulin (Sigma #4967S 1:5000 WB).
On the technique in general: HiBiT is a short tag that completes a luciferase, so light tracks the accessible tagged protein.

As for `Cc1cc([C@H](C(=O)N2C[C@H](S(=O)(=O)F)C[C@H]2C(=O)N[C@@H](CC(=O)OC(C)(C)C)c2ccc(-c3scnc3C)cc2)C(C)C)on1` [VHL-SF2, tert-Butyl (S)-3-((2S,4R)-4-(Fluorosulfonyl)-1-((R)-3-methyl-2-(3-methylisoxazol-5-yl)butanoyl)pyrr-olidine-2-carboxamido)-3-(4-(4-methylthiazol-5-yl)phenyl)propanoate], the DC50 was over 75 µM.

For orientation: DC50 means the concentration at which degradation of the target reaches its halfway point.
